Measured values published in ChEMBL document CHEMBL1127892, “(6-oxo-3-pyridazinyl)-benzimidazoles as potent angiotensin II receptor antagonists” (Bioorg Med Chem Lett, 1994).

Legend:
[1] = molecular target: T1, Angiotensin II receptor (AT-1) type-1 (Rattus norvegicus, UniProt P29089+P25095); experiment: Concentration required for 50% inhibition of binding against Angiotensin II receptor, type 1 in rat adrenal cortex; type: tissue-based
T1 sequence (P29089 whole entry): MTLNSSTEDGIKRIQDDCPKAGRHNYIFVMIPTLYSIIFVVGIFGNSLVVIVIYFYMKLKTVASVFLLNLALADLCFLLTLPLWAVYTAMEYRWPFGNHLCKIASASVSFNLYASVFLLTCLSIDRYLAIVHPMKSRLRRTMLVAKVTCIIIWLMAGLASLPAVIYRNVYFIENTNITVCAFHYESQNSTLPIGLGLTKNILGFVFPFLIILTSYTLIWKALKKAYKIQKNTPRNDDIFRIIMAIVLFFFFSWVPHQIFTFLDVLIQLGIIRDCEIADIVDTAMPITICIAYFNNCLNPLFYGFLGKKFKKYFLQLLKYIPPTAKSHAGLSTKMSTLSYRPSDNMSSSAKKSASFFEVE
T1 sequence (P25095 whole entry): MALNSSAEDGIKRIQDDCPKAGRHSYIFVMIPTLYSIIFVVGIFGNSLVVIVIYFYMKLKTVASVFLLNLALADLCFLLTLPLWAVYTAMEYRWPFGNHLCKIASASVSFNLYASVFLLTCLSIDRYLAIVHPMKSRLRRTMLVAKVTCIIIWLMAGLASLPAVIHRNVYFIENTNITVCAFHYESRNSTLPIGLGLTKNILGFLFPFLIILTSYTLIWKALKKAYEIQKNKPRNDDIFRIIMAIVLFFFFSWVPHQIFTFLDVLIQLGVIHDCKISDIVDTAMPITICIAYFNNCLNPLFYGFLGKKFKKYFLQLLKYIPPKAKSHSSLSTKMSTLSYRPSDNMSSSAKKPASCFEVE

[2] = molecular target: T2, Type-1 angiotensin II receptor (Oryctolagus cuniculus, UniProt P34976); experiment: Inhibitory activity against Angiotensin II receptor, type 1 induced contractions in isolated rabbit aortic rings; type: functional
T2 sequence (P34976 whole entry): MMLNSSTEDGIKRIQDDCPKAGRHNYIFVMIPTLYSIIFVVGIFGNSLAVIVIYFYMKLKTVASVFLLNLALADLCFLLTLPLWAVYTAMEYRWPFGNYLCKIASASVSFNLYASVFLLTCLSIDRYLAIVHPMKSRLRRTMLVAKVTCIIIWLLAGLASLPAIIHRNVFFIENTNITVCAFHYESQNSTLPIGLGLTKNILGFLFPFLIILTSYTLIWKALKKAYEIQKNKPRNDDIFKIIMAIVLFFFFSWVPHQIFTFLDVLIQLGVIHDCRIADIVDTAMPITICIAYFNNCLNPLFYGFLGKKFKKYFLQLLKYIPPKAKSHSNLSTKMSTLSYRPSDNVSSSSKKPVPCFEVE

[3] = molecular target: T1, Angiotensin II receptor (AT-1) type-1; experiment: In vivo percent inhibition of Angiotensin II receptor, type 1 induced increase in diastolic blood pressure in pithed rat at 3 mg/kg i.d.; type: functional, organism-based, Artery; parameters: dose 3 mg/kg, route intraduodenal
[4] = molecular target: T3, Type-1 angiotensin II receptor (Bos taurus, UniProt P25104); experiment: Concentration required for 50% inhibition of binding against Angiotensin II receptor, type 1 in bovine adrenal cortex; type: tissue-based
T3 sequence (P25104 whole entry): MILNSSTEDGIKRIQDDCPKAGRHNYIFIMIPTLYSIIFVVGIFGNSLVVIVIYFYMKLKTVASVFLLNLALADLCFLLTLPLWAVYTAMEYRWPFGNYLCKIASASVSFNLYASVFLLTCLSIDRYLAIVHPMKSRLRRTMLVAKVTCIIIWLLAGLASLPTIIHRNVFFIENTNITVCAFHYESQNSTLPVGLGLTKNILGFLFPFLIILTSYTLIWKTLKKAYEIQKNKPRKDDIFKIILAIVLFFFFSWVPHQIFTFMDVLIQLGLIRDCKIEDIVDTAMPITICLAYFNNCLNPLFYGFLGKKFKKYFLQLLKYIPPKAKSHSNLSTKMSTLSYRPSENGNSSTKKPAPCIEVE

| SMILES | IC50 [1] [µM] | IC50 [2] [µM] | Inhibition [3] [%] | IC50 [4] [µM] |
| --- | --- | --- | --- | --- |
| CC1(C)CC(=O)NN=C1c1ccc2nc(C3CC3)n(Cc3ccc(-c4ccccc4-c4nn[n-]n4)cc3)c2c1.[K+] | 0.0034 | 0.004 | 80 |  |
| Cc1cc(=O)n(CC(=O)N(C)C)nc1-c1ccc2nc(C3CC3)n(Cc3ccc(-c4ccccc4-c4nn[n-]n4)cc3)c2c1.[K+] | 0.0036 |  |  |  |
| CN(C)C(=O)CN1N=C(c2ccc3nc(C4CC4)n(Cc4ccc(-c5ccccc5-c5nn[n-]n5)cc4)c3c2)C(C)(C)CC1=O.[K+] | 0.0047 | 0.002 |  |  |
| CCCc1nc2ccc(C3=NN(CC(=O)N(C)C)C(=O)CC3)cc2n1Cc1ccc(-c2ccccc2-c2nn[n-]n2)cc1.[K+] | 0.0017 | 0.002 |  |  |
| CCc1nc2ccc(C3=NN(CC(=O)N(C)C)C(=O)CC3)cc2n1Cc1ccc(-c2ccccc2-c2nn[n-]n2)cc1.[K+] | 0.0016 | 0.003 |  |  |
| CC1CC(=O)N(CC(=O)N(C)C)N=C1c1ccc2nc(C3CC3)n(Cc3ccc(-c4ccccc4-c4nn[n-]n4)cc3)c2c1.[K+] (stereo unspecified) | 0.0029 | 0.002 | 56 |  |
| CN(C)C(=O)CN1N=C(c2ccc3nc(C4CC4)n(Cc4ccc(-c5ccccc5-c5nn[n-]n5)cc4)c3c2)CCC1=O.[K+] | 0.0036 | 0.002 |  |  |
| CCCCc1nc2ccc(C3=NN(CC(=O)N(C)C)C(=O)CC3C)cc2n1Cc1ccc(-c2ccccc2-c2nn[n-]n2)cc1.[K+] (stereo unspecified) | 0.0028 |  |  |  |
| CC1CC(=O)NN=C1c1ccc2nc(C3CC3)n(Cc3ccc(-c4ccccc4-c4nn[nH]n4)cc3)c2c1 (stereo unspecified) | 0.0018 | 0.002 | 80 |  |
| Cc1cc(O)nnc1-c1ccc2nc(C3CC3)n(Cc3ccc(-c4ccccc4-c4nn[nH]n4)cc3)c2c1 | 0.0018 | 0.003 | 40 |  |
| CCCCc1nc2cc(C3=NNC(=O)CC3C)ccc2n1Cc1ccc(-c2ccccc2-c2nnn[nH]2)cc1 (stereo unspecified) |  |  |  | 0.161 |
| CCCCc1nc2ccc(C3=NNC(=O)CC3C)cc2n1Cc1ccc(-c2ccccc2-c2nn[nH]n2)cc1 (stereo unspecified) | 0.0063 |  |  | 0.022 |
| CCCCc1nc2ccc(-c3nnc(O)cc3C)cc2n1Cc1ccc(-c2ccccc2-c2nn[nH]n2)cc1 | 0.0044 |  |  |  |
| CCCCc1nc2ccc(C3=NNC(=O)CC3)cc2n1Cc1ccc(-c2ccccc2-c2nn[nH]n2)cc1 | 0.005 |  |  |  |
| CCCCc1nc2cc(C3=NN(Cc4ccc(-c5ccccc5-c5nn[nH]n5)cc4)C(=O)CC3C)ccc2[nH]1 (stereo unspecified) |  |  |  | 7 |
| COc1ccc(-c2nc3cc(C4=NNC(=O)CC4C)ccc3n2Cc2ccc(-c3ccccc3-c3nn[nH]n3)cc2)cc1 (stereo unspecified) |  |  |  | 5.5 |
| COC(=O)c1ccccc1CN1N=C(c2ccc3nc(C4CC4)n(Cc4ccc(-c5ccccc5-c5nn[nH]n5)cc4)c3c2)C(C)CC1=O (stereo unspecified) | 0.0065 |  |  |  |
| COC(=O)CN1N=C(c2ccc3nc(C4CC4)n(Cc4ccc(-c5ccccc5-c5nn[nH]n5)cc4)c3c2)C(C)CC1=O (stereo unspecified) | 0.0032 | 0.004 | 57 |  |
| CCCCc1nc2ccc(C3=NNC(=O)CC3C)cc2[nH]1 (stereo unspecified) |  |  |  | > 1000 |
| COc1ccc(-c2nc3cc(C4=NN(Cc5ccc(-c6ccccc6-c6nn[nH]n6)cc5)C(=O)CC4C)ccc3[nH]2)cc1 (stereo unspecified) |  |  |  | 54 |
| COc1ccc(-c2nc3ccc(C4=NNC(=O)CC4C)cc3[nH]2)cc1 (stereo unspecified) [PIMOBENDAN] |  |  |  | 17 |
